Results on six molecules are retold here after patent US20230181638A1, “IMMUNOGENIC PEPTIDES WITH NEW OXIDOREDUCTASE MOTIFS” (IMCYSE SA, priority 2020, published 2023).

The subject of series [1] is Experimental Auto-Immune Encephalomyelitis (EAE). Kind of series: therapeutic administration, EAE clinical score in mice. Format: in vivo. Particulars: for mice died: therapeutic EAE study, 16 mice per group, deaths did not appear to be due to EAE. On the procedure: The study used a total of 64 female C57BL/6 mice (Taconic Biosciences, 9 weeks old on Day 0). Mice were acclimated for 7 days prior to the first injection. Mice were assigned to groups in a balanced manner to achieve similar average weight across the groups at the start of the study.
Dosing of all mice was performed once on each of the days indicated in Table 6, s.c., at a volume of 0.05 mL/site, each mouse receiving injection at two sites, for a total of 0.1 mL/mouse/dosing day. IMCY-0189, IMCY-0453 or IMCY-0455 peptide total close was […] per administration.
For Saline treatment, 0.9% NaCl solution was prepared at each dosing day. Peptide's preparation was performed as described in example 3.
(§1) AUC, MMS, inflammation and demyelination, and NF-L levels quantification data were analyzed by performing Ordinary one-way ANOVA. Adjustment for multiplicity was performed using Holm-Sidak's method. Significant differences are referred as follows: *p<0.05, **p<0.01, ***p<0.001, ****p<0.0001.
EAE induction and scoring were performed as described in example 3.
EAE development was evaluated by comparing clinical EAE readouts for all groups to the negative control (Saline) group.

In a further series the test system is 2D2-Total CD4+ cells. Kind of series: induction of lytic markers on CD4+ T cells after second stimulation. It counts as cell-based, 2D2 transgenic mice. As to conditions: 5 μM control peptide, 10-14 days after S1. An excerpt:
2D2 transgenic mice (Jackson Laboratory) were used as a source of CD4+ cell. […] In this study, 2D2-Total CD4+ cells were purified using manufacture instruction (Miltenyi Biotec, 130-104-454) and antigen presenting cells were splenocyte depleted for T cell repertoire (CD90.2 depletion, Miltenyi Biotec, 130-104-454) from C57BL6 mice (compatible with 2D2-transgenic mice). Control conditions for every study were either no-peptide addition or addition of IMCY-0017, IMCY-0257 or IMCY-0069 (see example 1 and table 1) which the two later, can bind to MHCII from C57BL6-APC efficiently but not activate the TCR from 2D2-transgenic CD4+ T cells. AA controls were not used.
Immunogenic peptides comprising an MCHII T cell epitope and a classical oxidoreductase motif of sequence CxxC are known from the art to induce CD4+ cells with lytic markers called cytolytic CD4+ cells (cCD4+). Therefore, it was attempted to determine whether the peptide variants of the present invention would lead to earlier and/or stronger (percentage or intensity) lytic properties in activated Ag-specific CD4 T cells. […] The FACS results were then determined for all variants of IMCY-0189 and the measurement for the wild type peptide (IMCY-0017) was removed from all the other measurements to determine purely the effect of every modified oxidoreductase motif on the induction of lytic properties.

The subject of series [2] is Experimental Auto-Immune Encephalomyelitis (EAE). The series can be described thus: prophylactic administration, EAE clinical score in mice. Format: in vivo, C57BL/6 mice. Particulars: vs Alum control group, FIG. 2C, FIG. 4.
Series [3] has the same test system. Kind of series: therapeutic EAE study, spinal cord histology (H&E, anti-MBP). It counts as in vivo, C57BL/6 mice. Particulars: spinal cord sections at end of study, vs Saline control. On the procedure:
At the end of the study, all mice were euthanized, and spines were collected and placed in 10% buffered formalin for histological analysis.
For each spine, one H&E stained slide and one anti-MBP stained slide were prepared and analyzed. Each slide contained a section with samples from lumbar, thoracic and cervical of spinal cord (3 samples). All analysis was performed by a pathologist blinded to the experimental groups and all clinical readouts.
Inflammatory foci of approximately 20 cells were counted in each H&E stained section. When inflammatory infiltrates consisted of more than 20 cells, an estimate was made of how many foci of 20 cells were present.
Demyelination was scored in each anti-MBP (using immunohistochemistry) stained section. In anti-MBP sections, demyelination is observed as conspicuous unstained areas in white matter tracts and is associated with presence of large vacuoles. […]
AUC, MMS, inflammation and demyelination, and NF-L levels quantification data were analyzed by performing Ordinary one-way ANOVA. […]
Histological readouts were evaluated by comparing inflammation and demyelination levels for all groups to the negative control (Saline) group.

In series [4] the test system is Neurofilament light (NF-L) protein. Kind of series: therapeutic EAE study, serum neurofilament levels (Simoa NF-light). As to conditions: serum on Day 28, vs Saline negative control, FIG. 10. It counts as in vivo, C57BL/6 mice. On the procedure: On Day 28, blood was collected from all mice into gel dot activator tubes and allowed to dot at room temperature for ˜30 minutes. Blood is then centrifuged at ˜10000 g for 5 minutes. Serum was transferred into Eppendorf tubes and stored at −80° C. until shipment to Quanterix™. Serum Neurofilament light (NF-L) protein levels were quantified using Simoa® NF-light Advantage kit, a digital immunoassay for the quantitative determination of NF-L in serum, plasma and CSF. The used antibodies (Uman Diagnostics, Umeå Sweden) also cross react with murine, bovine and macaque NF-L epitopes and as such, this assay can be used for research with these species. All samples were tested in duplicate at a dilution factor of 40×.
as §1
Axonal damage was also evaluated by comparing NF-L levels for all groups to the negative control (Saline) group.

Where [5] appears, read: therapeutic, 30 μg s.c. with Alum on Days 4, 9, 14, 19, vs Saline negative control.

Where a SMILES comes first, the peptide text is derived from it. Where no end group is shown, it is not given here.

With `CC(C)C[C@H](NC(=O)[C@H](Cc1c[nH]cn1)NC(=O)[C@@H](NC(=O)[C@@H](NC(=O)[C@H](CCCNC(=N)N)NC(=O)[C@H](CO)NC(=O)[C@H](Cc1ccccc1)NC(=O)[C@@H]1CCCN1C(=O)[C@H](CO)NC(=O)[C@H](CCCNC(=N)N)NC(=O)[C@H](Cc1ccc(O)cc1)NC(=O)[C@H](Cc1c[nH]c2ccccc12)NC(=O)CNC(=O)[C@H](CS)NC(=O)[C@H](Cc1ccc(O)cc1)NC(=O)[C@@H]1CCCN1C(=O)[C@H](CS)NC(=O)[C@@H](N)Cc1c[nH]cn1)C(C)C)C(C)C)C(=O)N[C@@H](Cc1ccc(O)cc1)C(=O)N[C@@H](CCCNC(=N)N)C(N)=O` [IMCY-0189, HCPYC-GWYRSPFSRVVHLYR-NH2, reference compound] (H-HCPYCGWYRSPFSRVVHLYR-NH2), in series [1], the mice died result is listed as “No mice died”.

Consider “HCPYC-LALWEPKPTQAFVK-NH2 (HCPYCLALWEPKPTQAFVK-NH2; cysteine pairing not given here) [IMCY-0069]”, for which the “survival of the cell culture up to second stimulation” value in the series on 2D2-Total CD4+ cells is given as “did not survive in the cell culture”.

On to “CPYC-GWYRSPFSRVVHLYR-NH2 (CPYCGWYRSPFSRVVHLYR-NH2; cysteine pairing not given here) [IMCY-0443]”, for which, in series [2], the “reduction of the peak of the disease or MMS” value is given as “not observed”.

For “KCRPYC-GWYRSPFSRVVHLYR-NH2 (KCRPYCGWYRSPFSRVVHLYR-NH2; cysteine pairing not given here) [IMCY-0455, KCRPYC motif variant of IMCY-0189]”, the “level of inflammation (inflammatory foci, H&E)” value in series [3] (FIG. 8) is “statistically significant reduced level”. Moreover, the “level of demyelination (anti-MBP score)” value in series [3] (FIG. 9) is listed as “statistically significant reduced level”. In series [4], the “serum NF-L levels” value is recorded as “statistically significant reduced”. In series [1], this molecule came in with a mice died of 1. For the same molecule, the “all clinical readouts (disease onset, end score, AUC and MMS) as compared to IMCY-0189” value in series [1] (therapeutic, 30 μg s.c. with Alum on Days 4, 9, 14, 19, vs IMCY-0189 group) is recorded as “statistically significantly improved”. Moreover, in series [1] (setting [5]), the disease onset result is given as “statistically significantly improved” and the end score entry is “statistically significantly improved”. For the same molecule, in series [1] (therapeutic, 30 μg s.c. with Alum on Days 4, 9, 14, 19, vs Saline negative control, FIG. 6), the “AUC of EAE scores” value is on record as “statistically significantly improved”. Further, the “MMS of EAE scores” value in series [1] (therapeutic, 30 μg s.c. with Alum on Days 4, 9, 14, 19, vs Saline negative control, FIG. 7) was “statistically significantly improved”.

In turn, `CC(C)C[C@H](NC(=O)[C@H](Cc1c[nH]cn1)NC(=O)[C@@H](NC(=O)[C@@H](NC(=O)[C@H](CCCNC(=N)N)NC(=O)[C@H](CO)NC(=O)[C@H](Cc1ccccc1)NC(=O)[C@@H]1CCCN1C(=O)[C@H](CO)NC(=O)[C@H](CCCNC(=N)N)NC(=O)[C@H](Cc1ccc(O)cc1)NC(=O)[C@H](Cc1c[nH]c2ccccc12)NC(=O)CNC(=O)[C@H](CS)NC(=O)[C@H](CCCNC(=N)N)NC(=O)[C@H](CS)NC(=O)[C@@H](N)CCCCN)C(C)C)C(C)C)C(=O)N[C@@H](Cc1ccc(O)cc1)C(=O)N[C@@H](CCCNC(=N)N)C(N)=O` [IMCY-0453, KCRC-GWYRSPFSRVVHLYR-NH2] (H-KCRCGWYRSPFSRVVHLYR-NH2) yielded a mice died in series [1] of 1.

“HCPYC-NGGFNSNRANSSRSS-NH2 (HCPYCNGGFNSNRANSSRSS-NH2; cysteine pairing not given here) [IMCY-0257]”: in the series with 2D2-Total CD4+ cells, the “survival of the cell culture up to second stimulation” value was “did not survive in the cell culture”.
